From patent EP0211863B1, “VITAMIN D DERIVATIVES AND METHODS FOR PREPARING SAME” (WISCONSIN ALUMNI RESEARCH FOUNDATION, priority 1985, dated 1986)

What was measured:
[1] = Bone calcium mobilization activity (serum calcium by atomic absorption); assay type: in vivo; conditions: male weanling rats on low calcium, vitamin D deficient diet for 3 weeks; 650 pmole intrajugularly, 7 h prior to sacrifice; ± standard deviation from the mean
Experimental: Bone calcium mobilization activity of 1α,25-(OH)₂-26-homo-D₃ compounds
Male weanling rats were purchased from Holtzman Co., Madison, Wis. and fed ad libitum a low calcium, vitamin D deficient diet as described by Suda et al (J. Nutrition 100: 1049, 1970) and water for 3 weeks. The rats were then divided into 4 groups of 6 each and were intrajugularly given respectively 650 pmole of either 1α,25-(OH)₂-26-homo-D₃, 1α,25-(OH)₂-(22E)Δ²²-26-homo-D₃ or 1α,25-(OH)₂D₃ dissolved in 0.05 ml of 95% ethanol 7 h prior to sacrifice. […] The rats in the control group were given 0.05 ml of ethanol vehicle in the same manner. They were killed by decapitation, the blood was collected and centrifuged to obtain serum. Serum calcium concentration was determined with an atomic absorption spectrophotometer (Perkin-Elmer Model 214) in presence of 0.1% lanthanum chloride.

[2] = tested on: human promyelocytic leukemia cells (HL-60 cells); test: NBT-reduction assay for differentiation; assay type: cell-based; conditions: four days (96 hr) incubation, read-out: concentration to achieve 60% differentiation
Experimental: (§1) The human promyelocytic leukemia cell line (HL-60) was maintained in suspension culture in RPMl 1640 medium (Gibco, Grand Island, NY) supplemented with 10% (v/v) heat inactivated fetal calf serum, 100 ug/ml penicillin, 100 µg/ml streptomycin and 0.25 µg/ml fungizone. Cells were cultured in a humidified atmosphere with 5% CO₂. Cell viability was assessed by standard assays, e.g. trypan blue exclusion. Morphological evaluations were done on Wright stained slide preparations.
(§2) Cells were seeded at 1.5 - 2 x 10⁵ cells/ml in 10 ml of medium in tissue culture dishes. […] Control cultures were treated with the same concentration of ethanol. After four days (96 hr) of incubation with test compounds, the cells were harvested from these culture dishes and cell number and viability were determined. […] After incubation of this mixture for 1 hr at 37°C, the number of phagocytic cells was counted (as determined by the trypan blue stained yeast appearing intracellularly) and expressed as a percent of the total viable cells present. […] After standing in a water bath for 30 min, the differentiated cells (i.e. the cells showing formazan blue deposits indicative of NBT reduction) were counted with a hemocytometer and expressed as the percent of total viable cells present.

[3] = tested on: human promyelocytic leukemia cells (HL-60 cells); test: Phagocytosis assay for differentiation activity; assay type: cell-based; conditions: four days (96 hr) incubation
Experimental: as §1, §2

| Compound | Serum Calcium Concentration [1] | EC60 [2] [µM] | EC50 ([3]; Homo sapiens, HL-60, phagocytosis assay, read-out: concentration to achieve 50% differentiation) [µM] | differentiation (% phagocytic cells) ([3]; concentration of 10⁻⁸ molar) |
| --- | --- | --- | --- | --- |
| C=C1/C(=C\C=C2/CCC[C@]3(C)[C@@H]([C@H](C)CCCC(C)(O)CC)CC[C@@H]23)C[C@@H](O)C[C@@H]1O (stereo partly drawn) [1α,25-(OH)₂-26-homo-D₃, (25ξ)-1α,25-Dihydroxy-26-homovitamin D₃] | 4.6 ± 0.2 ^b^) mg/100 ml | – | – | – |
| C=C1/C(=C\C=C2/CCC[C@]3(C)[C@@H]([C@H](C)/C=C/CC(C)(O)CC)CC[C@@H]23)C[C@@H](O)C[C@@H]1O (stereo partly drawn) [1α,25-(OH)₂-(22E)Δ²²-26-homo-D₃, (22E,25ξ)-1α,25-Dihydroxy-22-dehydro-26-homovitamin D₃] | 4.6 ± 0.3 ^b^) mg/100 ml | – | – | – |
| C=C1/C(=C\C=C2/CCC[C@]3(C)[C@@H]([C@H](C)CCCC(C)(C)O)CC[C@@H]23)C[C@@H](O)C[C@@H]1O [1α,25-(OH)₂D₃, 1α,25-dihydroxyvitamin D₃] | 4.5 ± 0.2 ^b^) mg/100 ml | 0.035 | ~0.01 | about 47% |
